Results taken from ChEMBL document CHEMBL1649573, “Protein kinase G is required for intrinsic antibiotic resistance in mycobacteria” (2009).
Converted amounts (≈) assume the structure as drawn.

These molecules were tested on Mycolicibacterium smegmatis (assay: Antimycobacterial activity against PknGMsm-deficient Mycobacterium smegmatis harboring PknG Mtb gene by Etest method).
Format: functional
Molecule `CC[C@H]1OC(=O)[C@H](C)[C@@H](O[C@H]2C[C@@](C)(OC)[C@@H](O)[C@H](C)O2)[C@H](C)[C@@H](O[C@@H]2O[C@H](C)C[C@H](N(C)C)[C@H]2O)[C@](C)(O)C[C@@H](C)C(=O)[C@H](C)[C@@H](O)[C@]1(C)O` [ERYTHROMYCIN] has an MIC of 32 µg/mL (≈ 43.6 µM).
In the case of `CC[C@@H](CO)NCCN[C@@H](CC)CO` [ETHAMBUTOL], the MIC is reported as 0.25 µg/mL (≈ 1.22 µM).
In the case of `C[C@@H](O)[C@H]1C(=O)N2C(C(=O)O)=C(SCCNC=N)C[C@H]12` [IMIPENEM ANHYDROUS], the MIC is reported as 6 µg/mL (≈ 20 µM).
`CO[C@H]1/C=C/O[C@@]2(C)Oc3c(C)c(O)c4c(O)c(c(/C=N/N5CCN(C)CC5)c(O)c4c3C2=O)NC(=O)/C(C)=C\C=C\[C@H](C)[C@H](O)[C@@H](C)[C@@H](O)[C@@H](C)[C@H](OC(C)=O)[C@@H]1C` [RIFAMPIN] was tested, and the MIC was greater than 32 µg/mL.
Molecule `CN[C@H](CC(C)C)C(=O)N[C@H]1C(=O)N[C@@H](CC(N)=O)C(=O)N[C@H]2C(=O)N[C@H]3C(=O)N[C@H](C(=O)N[C@H](C(=O)O)c4cc(O)cc(O)c4-c4cc3ccc4O)[C@H](O)c3ccc(c(Cl)c3)Oc3cc2cc(c3O[C@@H]2O[C@H](CO)[C@@H](O)[C@H](O)[C@H]2O[C@H]2C[C@](C)(N)[C@H](O)[C@H](C)O2)Oc2ccc(cc2Cl)[C@H]1O` [VANCOMYCIN] has an MIC of 48 µg/mL (≈ 33.1 µM).
